Test results from paper PMC5449569, “Basal late sodium current is a significant contributor to the duration of action potential of guinea pig ventricular myocytes” (Physiological Reports, 2017).

Target: T1, NaV1.5 channel (native basal late sodium current, INaL) (Cavia porcellus, UniProt H0V4Z8)
T1 construct: gene SCN5A; native channel in isolated guinea pig ventricular myocytes
Experiment: whole-cell patch clamp of late Na+ current, single concentration ([…])
Assay type: cell-based
Settings: read-out: % inhibition at 2 mmol/L

T1 sequence (H0V4Z8 1-2015): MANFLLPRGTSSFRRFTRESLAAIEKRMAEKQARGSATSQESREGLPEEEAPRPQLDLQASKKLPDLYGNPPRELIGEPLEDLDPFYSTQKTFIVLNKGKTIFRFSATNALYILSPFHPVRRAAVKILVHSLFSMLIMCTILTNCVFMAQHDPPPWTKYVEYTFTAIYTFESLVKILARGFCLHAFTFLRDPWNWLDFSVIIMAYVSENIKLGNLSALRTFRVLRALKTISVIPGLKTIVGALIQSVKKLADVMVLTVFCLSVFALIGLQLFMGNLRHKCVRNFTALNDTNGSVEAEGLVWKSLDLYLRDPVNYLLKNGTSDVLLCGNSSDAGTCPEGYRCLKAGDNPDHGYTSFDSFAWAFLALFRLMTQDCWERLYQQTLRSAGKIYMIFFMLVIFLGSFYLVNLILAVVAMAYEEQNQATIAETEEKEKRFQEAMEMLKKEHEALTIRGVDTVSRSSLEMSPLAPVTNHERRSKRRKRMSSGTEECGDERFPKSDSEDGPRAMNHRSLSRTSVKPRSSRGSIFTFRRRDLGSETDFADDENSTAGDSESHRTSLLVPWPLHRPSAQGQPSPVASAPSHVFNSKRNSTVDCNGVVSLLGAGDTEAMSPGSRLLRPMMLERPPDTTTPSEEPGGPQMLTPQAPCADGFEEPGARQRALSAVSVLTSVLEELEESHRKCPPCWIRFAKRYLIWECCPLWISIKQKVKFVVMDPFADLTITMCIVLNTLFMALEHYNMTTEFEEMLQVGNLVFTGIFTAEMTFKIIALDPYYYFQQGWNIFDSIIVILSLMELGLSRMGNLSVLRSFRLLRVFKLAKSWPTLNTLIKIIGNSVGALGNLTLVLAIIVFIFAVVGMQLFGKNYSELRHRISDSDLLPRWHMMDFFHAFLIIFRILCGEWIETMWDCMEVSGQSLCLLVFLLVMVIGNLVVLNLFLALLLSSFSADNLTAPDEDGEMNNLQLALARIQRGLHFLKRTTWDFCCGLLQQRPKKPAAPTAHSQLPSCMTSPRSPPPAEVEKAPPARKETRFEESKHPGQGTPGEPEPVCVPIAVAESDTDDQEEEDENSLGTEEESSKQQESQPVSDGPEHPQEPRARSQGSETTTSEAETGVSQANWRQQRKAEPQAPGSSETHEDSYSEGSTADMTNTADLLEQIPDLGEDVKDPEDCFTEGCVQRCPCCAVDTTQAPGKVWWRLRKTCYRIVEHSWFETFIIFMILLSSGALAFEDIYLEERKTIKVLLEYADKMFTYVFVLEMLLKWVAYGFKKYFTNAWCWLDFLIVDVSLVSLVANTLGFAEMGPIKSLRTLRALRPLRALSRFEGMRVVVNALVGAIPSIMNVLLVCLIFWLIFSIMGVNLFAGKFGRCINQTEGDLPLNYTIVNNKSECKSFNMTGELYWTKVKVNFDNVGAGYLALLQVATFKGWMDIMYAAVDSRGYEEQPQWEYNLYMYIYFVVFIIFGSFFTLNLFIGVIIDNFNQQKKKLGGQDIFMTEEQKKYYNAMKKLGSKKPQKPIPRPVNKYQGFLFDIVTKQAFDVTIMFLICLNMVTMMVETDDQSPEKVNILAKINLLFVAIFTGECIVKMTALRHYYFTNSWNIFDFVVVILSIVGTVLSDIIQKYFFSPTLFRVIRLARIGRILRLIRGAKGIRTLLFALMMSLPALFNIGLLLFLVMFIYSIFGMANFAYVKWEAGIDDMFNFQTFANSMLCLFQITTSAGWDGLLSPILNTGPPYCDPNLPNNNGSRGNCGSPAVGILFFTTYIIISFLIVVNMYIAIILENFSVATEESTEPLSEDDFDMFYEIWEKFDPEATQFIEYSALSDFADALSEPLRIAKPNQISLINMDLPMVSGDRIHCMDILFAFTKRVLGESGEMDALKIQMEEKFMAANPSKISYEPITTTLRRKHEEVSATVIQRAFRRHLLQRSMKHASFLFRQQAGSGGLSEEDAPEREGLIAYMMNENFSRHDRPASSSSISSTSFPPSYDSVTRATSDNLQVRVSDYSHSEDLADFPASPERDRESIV

`CS(=O)(=O)SCCN` [MTSEA] showed an inhibition at 2000 µM of 90 ± 5%.
